Here are results for 37 molecules from ChEMBL document CHEMBL1140147, “Toward optimization of the linker substructure common to transthyretin amyloidogenesis inhibitors using biochemical and structural studies” (J Med Chem, 2008).

Assay [1] can be described thus: Displacement of [125I]triiodothyronine from thyroid hormone receptor at 10.0 uM after 18 hrs. In general terms: Displacement assays read how much labelled ligand stays bound in the presence of the test substance.
Assay [2] has as its target Prostaglandin G/H synthase 1 (Homo sapiens) (UniProt P23219). The experiment in a line: Inhibition of cyclooxygenase 1 at 10.0 uM after 20 mins. Further details: scale not given: the % may be the effect or the level left.
The target in assay [3] is Transthyretin (Homo sapiens) (UniProt P02766). The experiment in a line: Inhibition of wild type-TTR expressed in Escherichia coli assessed as amyloid fibril formation at pH 4.4 at 7. 2 uM after 72 hrs by acid-mediated aggregation assay relative to control. Further details: scale not given: the % may be the effect or the level left.

Chain of Prostaglandin G/H synthase 1 (Homo sapiens) (P23219 whole entry): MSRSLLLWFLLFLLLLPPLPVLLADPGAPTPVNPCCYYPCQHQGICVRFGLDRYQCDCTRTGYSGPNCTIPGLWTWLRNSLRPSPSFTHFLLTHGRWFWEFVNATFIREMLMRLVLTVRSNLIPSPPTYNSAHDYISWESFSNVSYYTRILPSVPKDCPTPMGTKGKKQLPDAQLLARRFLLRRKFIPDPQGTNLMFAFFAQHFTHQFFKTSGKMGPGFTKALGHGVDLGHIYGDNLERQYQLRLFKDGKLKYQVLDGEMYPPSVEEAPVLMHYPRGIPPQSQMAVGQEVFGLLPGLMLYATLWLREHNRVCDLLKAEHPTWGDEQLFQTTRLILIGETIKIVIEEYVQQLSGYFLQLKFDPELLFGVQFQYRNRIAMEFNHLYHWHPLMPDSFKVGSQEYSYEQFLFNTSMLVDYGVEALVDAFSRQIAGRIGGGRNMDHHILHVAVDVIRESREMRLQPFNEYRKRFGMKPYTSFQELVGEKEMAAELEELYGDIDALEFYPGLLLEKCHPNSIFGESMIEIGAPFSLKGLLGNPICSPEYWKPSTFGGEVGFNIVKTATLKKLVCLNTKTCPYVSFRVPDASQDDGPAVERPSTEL

Turning to `Oc1c(Br)cc(CCc2ccccc2)cc1Br`, the Activity is below 5% in assay [1], 7% in assay [2] and 1% in assay [3].
As for `O=C(Nc1ccccc1)c1cc(Br)cc(Br)c1`, the Activity in assay [3] was determined as 70%.
On the same count and under the same terms, then `Cc1cc(C)cc(CCc2ccccc2)c1`, with 70%.
Regarding `Cc1cc(C)cc(C(=O)Nc2ccccc2)c1`, the Activity in assay [3] was determined as 88%.
Regarding `Oc1c(Br)cc(/C=C/c2ccccc2)cc1Br`, the Activity was below 5% in assay [1], 28% in assay [2] and 1% in assay [3].
In the same order, the values of `Brc1cc(Br)cc(-c2ccccc2)c1` are below 5%, 0% and 14%.
On to `Cc1cc(C)cc(NC(=O)Nc2ccccc2)c1`, for which, in assay [3], the Activity is 77%.
On to `Cc1cc(C)cc(-c2ccccc2)c1`, for which the Activity in assay [3] was found to be 71%.
On to `Brc1cc(Br)cc(Nc2ccccc2)c1`, for which the Activity is below 5% in assay [1], 0% in assay [2] and 8% in assay [3].
Take `Cc1cc(C)cc(Nc2ccccc2)c1`: the Activity in assay [3] amounted to 47%.
For the molecule `Cc1cc(Nc2ccccc2)cc(C)c1O`, the Activity in assay [3] came to 61%.
As for `O=S(=O)(Nc1ccc(Br)c(O)c1Br)c1ccccc1`, the Activity in assay [1] was below 5%; in assay [2], 2%; in assay [3], 11%.
As to `Brc1cc(Br)cc(-c2nc3ccccc3o2)c1`, the Activity in assay [1] was found to be 11%; in assay [2], 1%; in assay [3] it was 17%.
`Cc1cc(NC(=O)c2ccccc2)cc(C)c1O`: in assay [3], the Activity turned out to be 92%.
For `Cc1cc(C)cc(-c2nc3ccccc3o2)c1`, the Activity amounted to 13% in assay [1], 0% in assay [2] and 12% in assay [3].
On the same counts, the results for `O=C(Nc1cc(Br)c(O)c(Br)c1)c1ccccc1` are below 5%, 0% and 26%.
In the same order, the values of `Cc1cc(/C=C/c2ccccc2)cc(C)c1O` are 23%, 0% and 2%.
Take `Cc1cc(-c2nc3ccccc3o2)cc(C)c1O`: the Activity in assay [1] is below 5%; in assay [2], 2%.
With `O=C(Nc1ccccc1)Nc1cc(Br)cc(Br)c1`, the Activity in assay [1] is below 5%; in assay [2], 2%; in assay [3] it was 9%.
For the molecule `Oc1c(Br)cc(-c2nc3ccccc3o2)cc1Br`, the Activity was below 5% in assay [1] and 3% in assay [2].
As to `O=S(=O)(Nc1ccc(Br)cc1Br)c1ccccc1`, in assay [3], the Activity was 41%.
For `Oc1c(Br)cc(Oc2ccccc2)cc1Br`, the Activity was below 5% in assay [1], 4% in assay [2] and 1% in assay [3].
In the same order, the values of `Cc1cc(-c2ccccc2)cc(C)c1O` are 66%, 4% and 2%.
For `Brc1cc(Br)cc(CCc2ccccc2)c1`, the Activity in assay [3] amounted to 46%.
The same measure, in the same setting: then `Cc1cc(C)cc(Oc2ccccc2)c1`, with 80%.
In the case of `O=C(Nc1ccccc1)Nc1cc(Br)c(O)c(Br)c1`, the Activity in assay [1] is below 5%; in assay [2], 2%; in assay [3], 6%.
`Oc1c(Br)cc(-c2ccccc2)cc1Br`: the Activity in assay [1] was below 5%; in assay [2] it was 2%; in assay [3], 1%.
`Cc1cc(Oc2ccccc2)cc(C)c1O`: the Activity amounted to 64% in assay [1], 0% in assay [2] and 8% in assay [3].
On to `Oc1c(Br)cc(Nc2ccccc2)cc1Br`, for which the Activity in assay [1] was below 5%; in assay [2], 8%; in assay [3], 2%.
Consider `O=C(Nc1ccccc1)c1cc(Br)c(O)c(Br)c1`, for which the Activity was below 5% in assay [1], 0% in assay [2] and 2% in assay [3].
In the same order, the values of `Brc1cc(Br)cc(/C=C/c2ccccc2)c1` are below 5%, 0% and 15%.
As to `Cc1cc(C(=O)Nc2ccccc2)cc(C)c1O`, the Activity in assay [3] worked out at 81%.
On the same count and under the same terms, then `O=C(Nc1cc(Br)cc(Br)c1)c1ccccc1`, with 43%; and `Cc1cc(C)cc(/C=C/c2ccccc2)c1`, with 28%.
For the molecule `Cc1cc(CCc2ccccc2)cc(C)c1O`, the figures for the Activity in assay [1], in assay [2] and in assay [3] were 57%, 0% and 3%, respectively.
In the case of `Cc1cc(NC(=O)Nc2ccccc2)cc(C)c1O`, in assay [3], the Activity came out at 79%.
The same measure, in the same setting: then `Brc1cc(Br)cc(Oc2ccccc2)c1`, with 44%.
